In assay [1] the target is human carbonic anhydrase II (hCA 2) (Homo sapiens, UniProt P00918). As to the kind of experiment: Human Carbonic Anhydrase II inhibition. The format is biochemical.
A short description of assay [2]: oral biological activity: % uterine weight increase compared to vehicle. The format is in vivo, rat. Particulars: for change in vivo at 0.03 mg / change in vivo at 0.01 mg: Rattus norvegicus, oral; for change in vivo at 0.03 mg: 30.0 μg; for change in vivo at 0.01 mg: 10.0 μg. The protocol:
Exemplary compounds were tested for: oral biological activity (Table 1); binding to human carbonic anhydrase II (hCA 2) (Table 2); and, for some compounds enzymatic saponification (Table 3).

Structures are written as SMILES. Where two headings read alike, the source gives them in different places.

This passage reports IC50, change in vivo and oral activity results from patent US10273263B2, “Pro-drug forming compounds” (priority 2013, dated 2019).

As to `C[C@]12CCC3c4ccc(O)cc4CCC3C1CC[C@@H]2OC(=O)c1cccc(S(N)(=O)=O)c1` (stereo partly drawn) [Compound 1A, (13S, 17S)-3-hydroxy-13-methyl-7,8,9,11,12,13,14,15,16,17-decahydro-6H-cyclopenta[a]phenanthren-17-yl 3-sulfamoylbenzoate, reference compound], the IC50 (usually the midpoint of a concentration-inhibition curve) in assay [1] (read-out: hCAII (IC50 nM)) was determined as 258 nM. In assay [2], this compound had a change in vivo at 0.03 mg of 212%.
With `C[C@]12CCC3c4ccc(O)cc4CCC3C1CC[C@@H]2OC(=O)COC(=O)c1cccc(S(N)(=O)=O)c1` (stereo partly drawn) [Compound 2A, 2-((13S,17S)-3-hydroxy-13-methyl-7,8,9,11,12,13,14,15,16,17-decahydro-6H-cyclopenta[a]phenanthren-17-yloxy)-2-oxoethyl 3-sulfamoylbenzoate], the IC50 in assay [1] (read-out: hCAII (IC50 nM)) was found to be 3500 nM.
`C[C@]12CCC3c4ccc(O)cc4CCC3C1CC[C@@H]2OC(=O)COC(=O)c1ccc(S(N)(=O)=O)cc1` (stereo partly drawn) [Compound 3A, 2-((13S,17S)-3-hydroxy-13-methyl-7,8,9,11,12,13,14,15,16,17-decahydro-6H-cyclopenta[a]phenanthren-17-yloxy)-2-oxoethyl 4-sulfamoylbenzoate]: the IC50 in assay [1] (read-out: hCAII (IC50 nM)) worked out at 250 nM. This compound showed a change in vivo at 0.03 mg in assay [2] of 197%.
For `C[C@]12CCC3c4ccc(O)cc4CCC3C1CC[C@@H]2OC(=O)/C=C/C(=O)NCc1ccc(S(N)(=O)=O)cc1` (stereo partly shown) [Compound 4A], in assay [1] (read-out: hCAII (IC50 nM)), the half-maximal inhibitory concentration (IC50) was 450 nM. For the same compound, in assay [2], the change in vivo at 0.03 mg was determined as 164%.
As for `C[C@]12CCC3c4ccc(O)cc4CCC3C1CC[C@@H]2OC(=O)CNC(=O)c1cccc(S(N)(=O)=O)c1` (stereo partly drawn) [Compound 5A, (13S,17S)-3-hydroxy-13-methyl-7,8,9,11,12,13,14,15,16,17-decahydro-6H-cyclopenta[a]phenanthren-17-yl 2-(3-sulfamoylbenzamido)-acetate], the IC50 in assay [1] (read-out: hCAII (IC50 nM)) stood at 42 nM. The compound also yielded a change in vivo at 0.03 mg in assay [2] of 171%.
For the compound `C[C@]12CCC3c4ccc(O)cc4CCC3C1CC[C@@H]2OC(=O)CNC(=O)c1ccc(S(N)(=O)=O)cc1` (stereo partly drawn) [Compound 6A, (13S,17S)-3-hydroxy-13-methyl-7,8,9,11,12,13,14,15,16,17-decahydro-6H-cyclopenta[a]phenanthren-17-yl 2-(4-sulfamoylbenzamido)acetate], the IC50 in assay [1] (read-out: hCAII (IC50 nM)) came to 65 nM. This compound also returned a change in vivo at 0.01 mg in assay [2] of 152%.
In the same order, the values of `C[C@]12CCC3c4ccc(O)cc4CCC3C1CC[C@@H]2OC(=O)[C@@H]1CCCN1C(=O)c1cccc(S(N)(=O)=O)c1` (stereo partly drawn) [Compound 7A, (2S)-((13S,17S)-3-hydroxy-13-methyl-7,8,9,11,12,13,14,15,16,17-decahydro-6H-cyclopenta[a]-phenanthren-17-yl) 1-(3-sulfamoylbenzoyl)pyrrolidine-2-carboxylate] are 300 nM and 108%.
Take `C[C@]12CCC3c4ccc(O)cc4CCC3C1CC[C@@H]2OC(=O)C(F)(F)S(N)(=O)=O` (stereo partly drawn) [Compound 9A, (13S,17S)-3-hydroxy-13-methyl-7,8,9,11,12,13,14,15,16,17-decahydro-6H-cyclopenta[a]phenanthren-17-yl 2,2-difluoro-2-sulfamoylacetate]: the IC50 in assay [1] (read-out: hCAII (IC50 nM)) stood at 85 nM. Further, the change in vivo at 0.01 mg in assay [2] was 218%.
In the same order, the values of `C[C@]12CCC3c4ccc(O)cc4CCC3C1CC[C@@H]2OC(=O)CS(N)(=O)=O` (stereo partly drawn) [Compound 10A, (13S,17S)-3-hydroxy-13-methyl-7,8,9,11,12,13,14,15,16,17-decahydro-6H-cyclopenta[a]phenanthren-17-yl 2-sulfamoylacetate] are 510 nM and 177%.
For `C[C@H](NC(=O)c1cccc(S(N)(=O)=O)c1)C(=O)O[C@H]1CCC2C3CCc4cc(O)ccc4C3CC[C@@]21C` (stereo partly drawn) [Compound 11A, (2S)-((13S,17S)-3-hydroxy-13-methyl-7,8,9,11,12,13,14,15,16,17-decahydro-6H-cyclopenta[a]-phenanthren-17-yl) 2-(3-sulfamoylbenzamido)propanoate] the same measures were 310 nM and 170%.
`C[C@H](NC(=O)c1ccc(S(N)(=O)=O)cc1)C(=O)O[C@H]1CCC2C3CCc4cc(O)ccc4C3CC[C@@]21C` (stereo partly drawn) [Compound 12A, (2S)-((13S,17S)-3-hydroxy-13-methyl-7,8,9,11,12,13,14,15,16,17-decahydro-6H-cyclopenta[a]-phenanthren-17-yl) 2-(4-sulfamoylbenzamido)propanoate] showed an IC50 in assay [1] of 250 nM. The compound also gave a change in vivo at 0.03 mg in assay [2] of 271%.
For the compound `C[C@]12CCC3c4ccc(O)cc4CCC3C1CC[C@@H]2OC(=O)CN(Cc1cccc(S(N)(=O)=O)c1)Cc1cccc(S(N)(=O)=O)c1` (stereo partly drawn) [Compound 13A, (13S,17S)-3-hydroxy-13-methyl-7,8,9,11,12,13,14,15,16,17-decahydro-6H-cyclopenta[a]phenanthren-17-yl 2-(bis(3-sulfamoylbenzyl)amino)acetate], in assay [1] (read-out: hCAII (IC50 nM)), the IC50 is 500 nM. This compound also gave a change in vivo at 0.03 mg in assay [2] of 136%.
In the same order, the values of `C[C@]12CCC3c4ccc(O)cc4CCC3C1CC[C@@H]2OC(=O)CNCc1cccc(S(N)(=O)=O)c1` (stereo partly drawn) [Compound 14A, (13S,17S)-3-hydroxy-13-methyl-7,8,9,11,12,13,14,15,16,17-decahydro-6H-cyclopenta[a]phenanthren-17-yl 2-(3-sulfamoylbenzylamino)acetate] are 450 nM and 187%.
In the same order, the values of `C[C@]12CCC3c4ccc(O)cc4CCC3C1CC[C@@H]2OC(=O)COc1ccc(S(N)(=O)=O)cc1` (stereo partly drawn) [Compound 15A, (13S,17S)-3-hydroxy-13-methyl-7,8,9,11,12,13,14,15,16,17-decahydro-6H-cyclopenta[a]phenanthren-17-yl 2-(4-sulfamoylphenoxy)acetate] are 105 nM and 152%.
As to `C[C@]12CCC3c4ccc(O)cc4CCC3C1CC[C@@H]2OC(=O)C1(S(N)(=O)=O)CC1` (stereo partly drawn) [Compound 16A, (13S,17S)-3-hydroxy-13-methyl-7,8,9,11,12,13,14,15,16,17-decahydro-6H-cyclopenta[a]phenanthren-17-yl 1-sulfamoylcyclopropanecarboxylate], in assay [1] (read-out: hCAII (IC50 nM)), the IC50 was > 10000 nM. In assay [2], this compound displayed a change in vivo at 0.03 mg of 314%. The oral activity entry in assay [2] (oral dose, comparison in words) is recorded as “comparable high oral activity”.
As for `C[C@]12CCC3c4ccc(O)cc4CCC3C1CC[C@@H]2OC(=O)COCc1ccc(S(N)(=O)=O)cc1` (stereo partly drawn) [Compound 17A, (13S,17S)-3-hydroxy-13-methyl-7,8,9,11,12,13,14,15,16,17-decahydro-6H-cyclopenta[a]phenanthren-17-yl 2-(4-sulfamoylbenzyloxy)acetate], the half-inhibitory concentration (IC50) in assay [1] (read-out: hCAII (IC50 nM)) was 125 nM. In assay [2], the change in vivo at 0.03 mg was found to be 133%.
Regarding `C[C@@H](C(=O)O[C@H]1CCC2C3CCc4cc(O)ccc4C3CC[C@@]21C)N(C)C(=O)c1ccc(S(N)(=O)=O)cc1` (stereo partly drawn) [Compound 18A, [(13S,17S)-3-hydroxy-13-methyl-6,7,8,9,11,12,14,15,16,17-decahydrocyclopenta[a]phenanthren-17-yl](2S)-2-[methyl-(4-sulfamoylbenzoyl)amino]propanoate], the IC50 in assay [1] worked out at 203 nM. Also, in assay [2], the change in vivo at 0.01 mg was found to be 209%.
Regarding `CC(C)[C@H](NC(=O)c1ccc(S(N)(=O)=O)cc1)C(=O)O[C@H]1CCC2C3CCc4cc(O)ccc4C3CC[C@@]21C` (stereo partly drawn) [Compound 19A, [(13S,17S)-3-hydroxy-13-methyl-6,7,8,9,11,12,14,15,16,17-decahydrocyclopenta[a]phenanthren-17-yl] (2S)-3-methyl-2-[(4-sulfamoylbenzoyl)amino]butanoate], in assay [1] (read-out: hCAII (IC50 nM)), the IC50 came to 202 nM. For the same compound, the change in vivo at 0.01 mg in assay [2] is 267%.
`CC(C)(NC(=O)c1ccc(S(N)(=O)=O)cc1)C(=O)O[C@H]1CCC2C3CCc4cc(O)ccc4C3CC[C@@]21C` (stereo partly drawn) [Compound 20A, [(13S,17S)-3-hydroxy-13-methyl-6,7,8,9,11,12,14,15,16,17-decahydrocyclopenta[a]phenanthren-17-yl] 2-methyl-2-[(4-sulfamoylbenzoyl)amino]propanoate] showed an IC50 in assay [1] of 232 nM. For the same compound, in assay [2], the change in vivo at 0.01 mg is 97.1%.
Consider `C[C@]12CCC3c4ccc(O)cc4CCC3C1CC[C@@H]2OC(=O)[C@H](Cc1ccccc1)NC(=O)c1ccc(S(N)(=O)=O)cc1` (stereo partly drawn) [Compound 21A, [(13S,17S)-3-hydroxy-13-methyl-6,7,8,9,11,12,14,15,16,17-decahydrocyclopenta[a]phenanthren-17-yl] (2S)-3-phenyl-2-[(4-sulfamoylbenzoyl)amino]propanoate], for which the 50% inhibitory concentration (IC50) in assay [1] (read-out: hCAII (IC50 nM)) came to 100 nM. The compound further came in with a change in vivo at 0.01 mg in assay [2] of 117%.
For the compound `C[C@]12CCC3c4ccc(O)cc4CCC3C1CC[C@@H]2OC(=O)[C@@H]1CCCN1c1ccc(S(N)(=O)=O)cc1` (stereo partly drawn) [Compound 22A, [(13S,17S)-3-hydroxy-13-methyl-6,7,8,9,11,12,14,15,16,17-decahydrocyclopenta[a]phenanthren-17-yl] 1-(4-sulfamoylphenyl)pyrrolidine-2-carboxylate], in assay [1] (read-out: hCAII (IC50 nM)), the IC50 was determined as 198 nM. In addition, the change in vivo at 0.01 mg in assay [2] amounted to 91.6%.
With `C[C@]12CCC3c4ccc(O)cc4CCC3C1CC[C@@H]2OC(=O)[C@@H]1CCCN1Cc1ccc(S(N)(=O)=O)cc1` (stereo partly drawn) [Compound 23A, [(13S,17S)-3-hydroxy-13-methyl-6,7,8,9,11,12,14,15,16,17-decahydrocyclopenta[a]phenanthren-17-yl] 1-[(4-sulfamoylphenyl)methyl]pyrrolidine-2-carboxylate], the IC50 in assay [1] (read-out: hCAII (IC50 nM)) is 129 nM. In assay [2], the change in vivo at 0.01 mg came out at 272%.
Consider `C[C@]12CC[C@@H]3c4ccc(O)cc4CC[C@H]3[C@@H]1CC[C@@H]2O` [Compound E2, estradiol, reference compound], for which, in assay [2], the change in vivo at 0.01 mg came to 118%.
In turn, `C#C[C@]1(O)CC[C@H]2[C@@H]3CCc4cc(O)ccc4[C@H]3CC[C@@]21C` [EE, ethinyl estradiol, reference compound] gave a change in vivo at 0.01 mg in assay [2] of 154%.
